# Biological target: T1, HsDLH (Homo sapiens, UniProt Q96DG6)
# T1 construct: gene CMBL; N-terminal His6-Twin-Strep-SUMO tag kept, E. coli BL21(DE3), Ni-NTA
# T1 sequence (Q96DG6 1-245): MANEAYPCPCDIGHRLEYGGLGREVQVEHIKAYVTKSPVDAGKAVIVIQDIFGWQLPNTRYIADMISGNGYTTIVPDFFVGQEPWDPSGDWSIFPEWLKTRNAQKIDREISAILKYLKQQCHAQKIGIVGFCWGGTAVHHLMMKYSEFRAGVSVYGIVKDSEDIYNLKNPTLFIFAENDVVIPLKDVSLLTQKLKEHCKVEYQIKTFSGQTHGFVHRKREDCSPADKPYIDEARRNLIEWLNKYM
# Type: biochemical
compound,measurement,value
CCOP(=O)(OCC)Oc1ccc2c(c1)Oc1cc(OP(=O)(OCC)OCC)ccc1C21OC(=O)c2ccccc21 [FDDEP],KM,displays very weak activity towards the fluorogenic phosphotriester FDDEP
